# From PubChem BioAssay AID1963959 (Molecular Pharmacology Branch, DTP, NCI, 2024)
# “And” between values parts separate entries of the source, which are not always exact repeats. Identical values can stand only once.
# System: T-47D spheroids with HUVEC/MSC, viability
# Test: Anticancer human tumor T-47D cell line growth inhibition [PI3K];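 note: spheroids exposed to agents for seven days before reading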;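 for viability, T/C: percent of DMSO vehicle control luminescence so 100% = untreated growth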
# Details: for viability, T/C: stronger effect = lower value
# Procedure, shortened: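 Combination activity was assessed by viability in multicellular tumor spheroids carrying HUVEC and MSC components. Agents were tested with PI3K inhibitors from a Cmax-based top dose (or 10 microM) downward in half-log increments.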
# [1] = curve of first compound, second compound 0.0316 µM
# [2] = curve of first compound, second compound 0.1 µM
# [3] = curve of first compound, second compound 0.316 µM
# [4] = curve of first compound, second compound 1 µM
# [5] = second compound 0.0316 µM, first compound 0.0316 µM
# [6] = second compound 0.0316 µM, first compound 0.1 µM
# [7] = second compound 0.0316 µM, first compound 0.316 µM
# [8] = second compound 0.0316 µM, first compound 1 µM
# [9] = second compound 0.0316 µM, first compound 3.16 µM
# [10] = second compound 0.0316 µM, first compound 10 µM
# [11] = second compound 0.1 µM, first compound 0.0316 µM
# [12] = second compound 0.1 µM, first compound 0.1 µM
# [13] = second compound 0.1 µM, first compound 0.316 µM
# [14] = second compound 0.1 µM, first compound 1 µM
# [15] = second compound 0.1 µM, first compound 3.16 µM
# [16] = second compound 0.1 µM, first compound 10 µM
# [17] = second compound 0.316 µM, first compound 0.0316 µM
# [18] = second compound 0.316 µM, first compound 0.1 µM
# [19] = second compound 0.316 µM, first compound 0.316 µM
# [20] = second compound 0.316 µM, first compound 1 µM
# [21] = second compound 0.316 µM, first compound 3.16 µM
# [22] = second compound 0.316 µM, first compound 10 µM
# [23] = second compound 1 µM, first compound 0.0316 µM
# [24] = second compound 1 µM, first compound 0.1 µM
# [25] = second compound 1 µM, first compound 0.316 µM
# [26] = second compound 1 µM, first compound 1 µM
# [27] = second compound 1 µM, first compound 3.16 µM
# [28] = second compound 1 µM, first compound 10 µM
# [29] = curve of first compound, second compound 3.16 µM
# [30] = curve of first compound, second compound 10 µM
# [31] = second compound 3.16 µM, first compound 0.0316 µM
# [32] = second compound 3.16 µM, first compound 0.1 µM
# [33] = second compound 3.16 µM, first compound 0.316 µM
# [34] = second compound 3.16 µM, first compound 1 µM
# [35] = second compound 3.16 µM, first compound 3.16 µM
# [36] = second compound 3.16 µM, first compound 10 µM
# [37] = second compound 10 µM, first compound 0.0316 µM
# [38] = second compound 10 µM, first compound 0.1 µM
# [39] = second compound 10 µM, first compound 0.316 µM
# [40] = second compound 10 µM, first compound 1 µM
# [41] = second compound 10 µM, first compound 3.16 µM
# [42] = second compound 10 µM, first compound 10 µM
compound,measurement,setting,value
CC1(C)CCC(CN2CCN(c3ccc(C(=O)NS(=O)(=O)c4ccc(NCC5CCOCC5)c([N+](=O)[O-])c4)c(Oc4cnc5[nH]ccc5c4)c3)CC2)=C(c2ccc(Cl)cc2)C1 + CC(Nc1ccc2c(c1)OCCn1cc(N3C(=O)OCC3C(F)F)nc1-2)C(N)=O,IC50,"curve of first compound, second compound 0.00316 µM",> 10 µM
same,IC50,"curve of first compound, second compound 0.01 µM",> 10 µM
same,IC50,[1],> 10 µM
same,IC50,[2],> 10 µM
same,IC50,[3],> 10 µM
same,IC50,[4],4.16 µM
same,"viability, T/C","second compound 0.00316 µM, first compound 0.0316 µM",101%
same,"viability, T/C","second compound 0.00316 µM, first compound 0.1 µM",97.2%
same,"viability, T/C","second compound 0.00316 µM, first compound 0.316 µM",98.9%
same,"viability, T/C","second compound 0.00316 µM, first compound 1 µM",89.8%
same,"viability, T/C","second compound 0.00316 µM, first compound 3.16 µM",76.3%
same,"viability, T/C","second compound 0.00316 µM, first compound 10 µM",78.9%
same,"viability, T/C","second compound 0.01 µM, first compound 0.0316 µM",90.1%
same,"viability, T/C","second compound 0.01 µM, first compound 0.1 µM",81.5%
same,"viability, T/C","second compound 0.01 µM, first compound 0.316 µM",93.7%
same,"viability, T/C","second compound 0.01 µM, first compound 1 µM",91.6%
same,"viability, T/C","second compound 0.01 µM, first compound 3.16 µM",79.5%
same,"viability, T/C","second compound 0.01 µM, first compound 10 µM",69.7%
same,"viability, T/C",[5],87.3%
same,"viability, T/C",[6],94%
same,"viability, T/C",[7],103%
same,"viability, T/C",[8],75.5%
same,"viability, T/C",[9],87%
same,"viability, T/C",[10],65.5%
same,"viability, T/C",[11],77.6%
same,"viability, T/C",[12],76.3%
same,"viability, T/C",[13],89.6%
same,"viability, T/C",[14],87.5%
same,"viability, T/C",[15],89.5%
same,"viability, T/C",[16],53.4%
same,"viability, T/C",[17],65.5%
same,"viability, T/C",[18],79.2%
same,"viability, T/C",[19],69.7%
same,"viability, T/C",[20],61.4%
same,"viability, T/C",[21],72.9%
same,"viability, T/C",[22],52.1%
same,"viability, T/C",[23],52.9%
same,"viability, T/C",[24],54.5%
same,"viability, T/C",[25],61%
same,"viability, T/C",[26],57.2%
same,"viability, T/C",[27],53%
same,"viability, T/C",[28],38.3%
Cn1ncc(Cl)c1-c1cc(C(=O)NC(CN)Cc2cccc(F)c2)sc1Cl (stereo not given) + Cc1nc(NC(=O)N2CCCC2C(N)=O)sc1-c1ccnc(C(C)(C)C(F)(F)F)c1,IC50,[1],> 10 µM
same,IC50,[2],> 10 µM
same,IC50,[3],> 10 µM
same,IC50,[4],> 10 µM
same,IC50,[29],> 10 µM
same,IC50,[30],< 0.0316 µM
same,"viability, T/C",[5],107%
same,"viability, T/C",[6],88.1%
same,"viability, T/C",[7],83.8%
same,"viability, T/C",[8],64.8%
same,"viability, T/C",[9],64.9%
same,"viability, T/C",[10],63.3%
same,"viability, T/C",[11],88.8%
same,"viability, T/C",[12],93.2%
same,"viability, T/C",[13],80.3%
same,"viability, T/C",[14],60%
same,"viability, T/C",[15],55.8%
same,"viability, T/C",[16],65.3%
same,"viability, T/C",[17],88.1%
same,"viability, T/C",[18],69.8%
same,"viability, T/C",[19],75%
same,"viability, T/C",[20],57.8%
same,"viability, T/C",[21],60.7%
same,"viability, T/C",[22],66.8%
same,"viability, T/C",[23],70%
same,"viability, T/C",[24],75.9%
same,"viability, T/C",[25],67.7%
same,"viability, T/C",[26],53.9%
same,"viability, T/C",[27],64.6%
same,"viability, T/C",[28],65.3%
same,"viability, T/C",[31],58.5%
same,"viability, T/C",[32],59.4%
same,"viability, T/C",[33],48.9%
same,"viability, T/C",[34],49.7%
same,"viability, T/C",[35],43.9%
same,"viability, T/C",[36],61.8%
same,"viability, T/C",[37],35.1%
same,"viability, T/C",[38],30%
same,"viability, T/C",[39],33.3%
same,"viability, T/C",[40],32.1%
same,"viability, T/C",[41],39.7%
same,"viability, T/C",[42],50.5%
C=CC(=O)N1CCN(c2nc(=O)n(-c3c(C)ccnc3C(C)C)c3nc(-c4c(O)cccc4F)c(F)cc23)C(C)C1 (stereo not given),"viability, T/C",compound 0.0316 µM,94.8% (2×) and 125% and 115%
same,"viability, T/C",compound 0.1 µM,96.8% [middle of 4 runs]
same,"viability, T/C",compound 1 µM,98.7% and 126% (2×) and 94.5%
same,IC50,curve of compound,> 10 µM
Cn1nccc1Nc1nccc(-c2ccn(C(CO)c3ccc(Cl)c(F)c3)c(=O)c2)n1 (stereo not given) + CC(Nc1ncnc2nc[nH]c12)c1cc2cccc(Cl)c2c(=O)n1-c1ccccc1,IC50,[1],> 10 µM
same,IC50,[2],> 10 µM
same,IC50,[3],> 10 µM
same,IC50,[4],> 10 µM
same,IC50,[29],> 10 µM
same,IC50,[30],> 10 µM
same,"viability, T/C",[5],114%
same,"viability, T/C",[6],91.8%
same,"viability, T/C",[7],116%
same,"viability, T/C",[8],103%
same,"viability, T/C",[9],115%
same,"viability, T/C",[10],90.4%
same,"viability, T/C",[11],109%
same,"viability, T/C",[12],99.9%
same,"viability, T/C",[13],99.2%
same,"viability, T/C",[14],85.5%
same,"viability, T/C",[15],104%
same,"viability, T/C",[16],81%
same,"viability, T/C",[17],80.2%
same,"viability, T/C",[18],96.7%
same,"viability, T/C",[19],87.5%
same,"viability, T/C",[20],88.8%
same,"viability, T/C",[21],118%
same,"viability, T/C",[22],83.5%
same,"viability, T/C",[23],88.4%
same,"viability, T/C",[24],108%
same,"viability, T/C",[25],98.4%
same,"viability, T/C",[26],113%
same,"viability, T/C",[27],111%
same,"viability, T/C",[28],84.2%
same,"viability, T/C",[31],101%
same,"viability, T/C",[32],97.6%
same,"viability, T/C",[33],97.6%
same,"viability, T/C",[34],85.5%
same,"viability, T/C",[35],108%
same,"viability, T/C",[36],96.3%
same,"viability, T/C",[37],97.1%
same,"viability, T/C",[38],84.1%
same,"viability, T/C",[39],95.8%
same,"viability, T/C",[40],94%
same,"viability, T/C",[41],125%
same,"viability, T/C",[42],73.9%
